Assay results reported in US4963570A, “1-(acetylaminophenyl)-2-aminopropanone derivatives and pharmaceutical compositions thereof” (Laboratoire L. Lafon, priority 1983, dated 1990).
“Also recorded” adds a separate entry of the source. Structures can show the parent of a compound that is named as a salt.

Legend:
male mice [1] = assay: interaction with proadifen: motility; type: in vivo, mouse; conditions: i.p., administered alone
Procedure: (§1) Two series of experiments were carried out. In the first one, male mice (12 per dose, 12 control animals) were administered per I.P. route (i) with proadifen (75 mg/kg) at T-3 h, then (ii) with CRL 41 152 at T-0.5 h. At T=0 the mice were placed in actimeters, where their motility was recoded for 0.5 h. In the second one male mice (12 per dose, 12 control animals) were administered with proadifen and CRL 41 152 as indicated hereinabove, then subcutaneously with apomorphine (16 mg/kg) at T=0 in order to appreciate the potential variation of the hypothermia induced by apomorphine.
(§2) In these two series CRL 41 152, in solution in distilled water, was administered per I.P. route to male mice in a volume of 20 ml/kg.

male mice [2] = assay: interaction with proadifen: hypothermia induced by apomorphine; type: in vivo, mouse
Procedure: as §1, §2

male mice [3] = assay: acute toxicity, intraperitoneal (lethal doses); type: in vivo, mouse; conditions: i.p.
Procedure: By intraperitoneal administration to male mice, the LD-30 (lethal dose for 30% of the animals tested) is of the order of 128 mg/kg and the LD-50 is of the order of about 200 mg/kg.

mice [4] = assay: overall behavior and reactivities in mice; type: in vivo, mouse; conditions: mice, i.p.; dose not stated
Procedure: (§3) Groups of three animals are observed before and then 0.25 hour, 0.50 hour, 1 hour, 2 hours, 3 hours and 24 hours after the administration of CRL 41 224.

rats [5] = assay: overall behavior and reactivities in rats; type: in vivo, rat; conditions: i.p., dose not stated
Procedure: as §3

mice [6] = assay: interaction with apomorphine in mice; type: in vivo, mouse; conditions: i.p.
Procedure: Groups of 6 mice receive CRL 41 224 0.5 hour before the subcutaneous injection of 1 or 16 mg/kg of apomorphine.

rats [7] = assay: interaction with apomorphine in rats; type: in vivo, rat; conditions: i.p., dose not stated
Procedure: CRL 41 224 is administered to groups of 6 rats 0.5 hour before the subcutaneous injection of 0.5 mg/kg of apomorphine.

rats [8] = assay: interaction with amphetamine; type: in vivo, rat; conditions: rats, i.p.; dose not stated
Procedure: Amphetamine (2 mg/kg) is injected intraperitoneally into groups of 6 rats 30 minutes after the administration of CRL 41 224.

mice [9] = assay: interaction with reserpine; type: in vivo, mouse; conditions: i.p.
Procedure: Four hours after the intraperitoneal injection of 2.5 mg/kg of reserpine, groups of 6 mice receive CRL 41 224.

mice [10] = assay: interaction with oxotremorine; type: in vivo, mouse; conditions: i.p.
Procedure: CRL 41 224 is administered to groups of 6 mice 0.5 hour before the intraperitoneal injection of 0.5 mg/kg of oxotremorine.

mice [11] = assay: four plate test, traction and electric shock; type: in vivo, mouse; conditions: i.p., strong/high dose
Procedure: The test is performed on groups of 10 mice 30 minutes after the administration of CRL 41 224.

mice [12] = assay: action on the spontaneous motility (actimeter); type: in vivo, mouse; conditions: mice, i.p.; dose not stated
Procedure: 0.5 hour after they have received CRL 41 224, the mice (6 per dose, 12 control animals) are placed in an actimeter, where their motility is recorded for 30 minutes.

mice [13] = assay: motility reduced by habituation to the enclosure; type: in vivo, mouse; conditions: i.p.
Procedure: After they have stayed in the actimeters for 18 hours, the mice (6 per dose, 12 control animals) receive CRL 41 224. They are immediately returned to their respective enclosures and, half an hour later, their motility is recorded for 30 minutes.

mice [14] = assay: motility reduced by hypoxic aggression; type: in vivo, mouse; conditions: i.p., dose not stated
Procedure: Half an hour after they have received CRL 41 224, the mice (10 per dose, 20 control animals) are subjected to acute hypobaric anoxia [pressure reduction of 600 mm Hg (i.e. about 8×10^4 Pa) in 90 seconds; release of vacuum in 45 seconds] and are then placed in an actimeter, where their motility is recorded for 10 minutes.

mice [15] = assay: asphyxiant anoxia (gallamine triiodoethylate); type: in vivo, mouse; conditions: i.p., high dose
Procedure: Groups of 10 mice receive CRL 41 224 half an hour before the intraperitoneal administration of 32 mg/kg of gallamine triiodoethylate (reference curarizing agent).

mice [16] = assay: interaction with barbital; type: in vivo, mouse; conditions: i.p.
Procedure: Half an hour after the administration of CRL 41 224, groups of 10 mice receive an intraperitoneal injection of barbital (220 mg/kg).

mice [17] = assay: action on the behavioral despair; type: in vivo, mouse; conditions: i.p., dose not stated
Text: Half an hour after they have received CRL 41 224, groups of 6 mice are placed in a beaker filled with water to a height of 6 cm. The total period of immobility between the 2nd and 6th minutes following immersion is noted.

[18] = tested on: spleen cells expressing a direct IgM antibody response; assay: test for cells forming lysis areas (PFC IgM, Cunningham); type: in vivo, mouse; conditions: oral; for activity index I / counts ± e.s.m. (lysis areas per spleen): mice
Procedure: Immunological assays were carried out in order to point out the interest of CRL 41 240 as an immunomodulating agent. Specifically, the test used was the so-called test for cells forming lysis areas, described by A. J. […] et al. ("Further improvements in the plaque technique for detecting simple antibody forming cells"), Immunology 14, pages 599-601 (1968).
The test for cells forming lysis areas (or PFC IgM) explores the humoral immunity. Four days after immunization with a T-dependent antigen (in this case red blood corpuscles of sheep), the spleen cells expressing a direct IgM antibody response are counted. The mice used for this purpose are conventional female OF1 mice devoid of specific pathogenic organisms, weighing from 20 to 30 g and divided up into a control group of 14 animals and groups each containing 7 animals per dose and per product to be studied, administered orally on the same day as the antigen. An activity index I is calculated for each dose of product according to the following equation: [formula]
This test is performed at least twice for each dose of test product [C(control amimals), 0.01, 0.1, 10 and 100 mg/kg] and a statistical study is undertaken using the Student t test after variance analysis on the number of lyses per spleen.

CNS = assay: overall neuropsychopharmacological (CNS) profile; type: in vivo, mouse; rat; conditions: i.p.
Procedure: The neuropsychopharmacological study of CRL 41 219 was carried out as indicated above for CRL 41 224.
The neuropsychopharmacological study of CRL 41 220 was carried out in accordance with the procedures given above for CRL 41 224.

[19] = tested on: peripheral α-adrenergic stimulation; assay: signs of peripheral adrenergic stimulation; type: in vivo, mouse; rat; conditions: i.p.; dose not stated
Procedure: as §3

immunological properties = assay: immunological properties, overall; type: in vivo; conditions: dose not stated
Text: The present 1-(acetylaminophenyl)-2-aminopropanone derivatives are useful in therapy. They all act on the CNS, more precisely as antidepressants. They have a stimulant or excitant component in their neuropsychopharmacological profile.

[20] = tested on: spleen cells expressing a direct IgM antibody response; assay: test for cells forming lysis areas (PFC IgM, Cunningham); type: in vivo, mouse; conditions: 1 mg/kg
[21] = tested on: delayed hypersensitivity to the red blood corpuscles of sheep; assay: delayed hypersensitivity to the red blood corpuscles of sheep (Miller); type: in vivo; conditions: oral, 10 to 100 mg/kg

CCCC(C(=O)OCCN(CC)CC)(c1ccccc1)c1ccccc1 [Proadifen, reference compound]
spontaneous motility (male mice [1]): induces hypomotility
righting behaviour and stereotypies induced by apomorphine (male mice [2]; i.p., apomorphine 16 mg/kg s.c.): Neither proadifen, nor CRL 41 152, nor their combination modify the righting behaviour
body temperature, used alone (male mice [2]; proadifen 75 mg/kg i.p.): important hypothermic effect
hypothermia induced by apomorphine (male mice [2]; proadifen 75 mg/kg i.p., apomorphine 16 mg/kg s.c.): does not modify the hypothermia induced by apomorphine

CC(=O)Nc1ccc(C(=O)C(C)N2CCCCC2)cc1 (stereo not shown) [CRL 41 240, 1-(4-acetylaminophenyl)-2-piperidinopropanone hydrochloride]
LD-0 (maximum non-lethal dose) (male mice [3]): greater than 256 mg/kg
excitation in mice (mice [4]): excitation in mice
stereotype movements in mice (mice [4]): presence of stereotype movements
excitation in rats (rats [5]): excitation in mice and rats
stereotype movements in rats (rats [5]): presence of stereotype movements
hypothermia induced by apomorphine (mice [6]; dose not stated): antagonism of the hypothermia induced by apomorphine
stereotypies induced by apomorphine (rats [7]): potentiation of the stereotypies induced by apomorphine
stereotypies induced by amphetamine (rats [8]): potentiation of the stereotypies induced by apomorphine and amphetamine
hypothermia induced by reserpine (mice [9]; dose not stated): antagonism of the hypothermia induced by apomorphine, reserpine
ptosis induced by reserpine (mice [9]; dose not stated): antagonism of the ptosis induced by reserpine
hypothermia induced by oxotremorine (mice [10]; dose not stated): antagonism of the hypothermia induced by apomorphine, reserpine and oxotremorine
convulsant effects of electric shock (mice [11]): antagonism of the convulsant effects of electric shock
spontaneous motility / motor activity (mice [12]): increase in the motor activity
motor activity after habituation to the enclosure (mice [13]; dose not stated): resumption in the activity of mice accustomed to their enclosure
motor recovery after hypoxic aggression (mice [14]): improvement in the motor recovery
time taken for asphyxiant convulsions (and death) to occur (mice [15]): increase in the time taken for asphyxiant convulsions to occur
sleep induced by barbital (mice [16]; dose not stated): very distinct antagonism of the sleep induced by barbital
period of immobility or "despair" (mice [17]): reduction in the period of immobility
minimal effective dose ([18]; Mus musculus, female OF1 mice, read-out: lowest immunologically active dose): 0.1 mg/kg
activity index I ([18]; 0.01 mg/kg): 1.23
counts ± e.s.m. (lysis areas per spleen) ([18]; 0.01 mg/kg): 64.5 ± 11.99 m.10^3 /rate
activity index I ([18]; 0.1 mg/kg): 1.25
counts ± e.s.m. (lysis areas per spleen) ([18]; 0.1 mg/kg): 65.7 ± 11.60 m.10^3 /rate
activity index I ([18]; 10 mg/kg): 1.52
counts ± e.s.m. (lysis areas per spleen) ([18]; 10 mg/kg): 79.4 ± 11.54 m.10^3 /rate
activity index I ([18]; 100 mg/kg): 1.31
counts ± e.s.m. (lysis areas per spleen) ([18]; 100 mg/kg): 68.8 ± 7.21 m.10^3 /rate
overall action on the CNS (CNS; mice and rats, dose not stated): behaves as an antidepressant and stimulant for the CNS
exophthalmos [19]: exophthalmos
mydriasis [19]: mydriasis
peripheral adrenergic stimulation, overall [19]: peripheral α-adrenergic stimulation
immunological properties, overall (immunological properties): beneficial immunomodulating effects
activity index I ([20]; mice, oral): 1.65
counts ± e.s.m. (lysis areas per spleen) ([20]; mice, oral): 86.5 ± 13.74 m.10^3 /rate

CC(=O)Nc1cccc(C(=O)C(C)NC(C)C)c1 (stereo not shown) [CRL 41 254]
LD-0 (maximum non-lethal dose) (male mice [3]): greater than 256 mg/kg
LD-100 (male mice [3]): less than or equal to 512 mg/kg
hypothermia induced by apomorphine (mice [6]; strong doses): antagonism of the hypothermia induced by apomorphine
hypothermia induced by reserpine (mice [9]; strong doses): no antagonism of the hypothermia induced by reserpine
hypothermia induced by oxotremorine (mice [10]; strong/high doses): antagonism of the hypothermia induced by apomorphine and oxotremorine
motor activity after habituation to the enclosure (mice [13]; strong doses): a moderate resumption in the motor activity of mice accustomed to their enclosure
duration of the sleep induced by barbital (mice [16]; strong/high doses): a reduction in the duration of the sleep induced by barbital
immunostimulant activity, delayed hypersensitivity [21]: statistically significant immunostimulant activity
overall action on the CNS (CNS; strong/high doses): modest antidepressant effects; also recorded: weak stimulant effects
immunological properties, overall (immunological properties): beneficial immunomodulating effects
immunostimulant activity, PFC IgM test [20]: statistically significant immunostimulant activity
